{
  "source": "patent US20110152094A1",
  "about": "“Herbicidal compositions comprising flufenacet” (Bayer CropScience AG, priority 2009, published 2011)",
  "assay_type_in_all_cases": "in vivo",
  "key": {"STEME = Stellaria media [1]": {"test_system": "STEME = Stellaria media", "assay": "Greenhouse trial, activity with different soil types (test method 7)", "conditions": "g of AS/ha: (A) 120, (B) 1200, (A)+(B) 120 + 1200", "procedure": "(§1) In the standard design of the test, seeds of various broad-leaved weed and weed grass biotypes (origins) were sown in a 8-13 cm diameter pot filled with natural soil of a standard field soil (loamy silt; non-sterile) and covered with a covering soil layer of about 1 cm. The pots were then cultivated in a greenhouse (12-16 h of light, temperature day 20-22° C., night 15-18° C.) until the time of application. The pots were treated on a laboratory track sprayer with spray liquors comprising the compositions according to the invention, mixtures of the prior art or components used individually. Application of the active compounds or active compound combinations formulated as WG, WP, EC or otherwise was carried out at the appropriate growth stages of the plants. The application rate for the spray application was 100-600 l of water/ha. After the treatment, the plants were returned to the greenhouses.\n(§2) About 3 weeks after the application, the soil action or/and foliar action was assessed visually according to a scale of 0-100% in comparison to an untreated comparative group: 0%=no noticeable effect compared to the untreated comparative group; 100%=full effect compared to the untreated comparative group.\n(§3) (notes: the term “seeds” also includes vegetative propagation forms such as, for example, rhizome pieces; abbreviations used: h light=hours of illumination, g of AS/ha=gram of active substance per hectare, l/ha=liter per hectare, S=sensitive, R=resistant) • 1. Pre-emergence action against weeds: seeds of various broad-leaved weed and weed grass biotypes (origins) were sown in a 8-13 cm diameter pot filled with natural soil of a standard field soil (loamy silt; non-sterile) and covered with a covering soil layer of about 1 cm. The pots were then cultivated in a greenhouse (12-16 h of light, temperature day 20-22° C., night 15-18° C.) until the time of application. The pots were treated at the BBCH stage 00-10 of the seeds/plants on a laboratory track sprayer with spray liquors comprising the compositions according to the invention, mixtures or components used individually, as WG, WP, EC or other formulations. The application rate for the spray application was 100-600 l of water/ha. After the treatment, the plants were returned to the greenhouses and, when required, treated with fertilizer and watered. • 2. Post-emergence action against weeds: seeds of various broad-leaved weed and weed grass biotypes (origins) were sown in a 8-13 cm diameter pot filled with natural soil of a standard field soil (loamy silt; non-sterile) and covered with a covering soil layer of about 1 cm. The pots were then cultivated in a greenhouse (12-16 h of light, temperature day 20-22° C., night 15-18° C.) until the time of application. The pots were treated at various BBCH stages between 11-25 of the seeds/plants, i.e. generally between two to three weeks after the start of the cultivation, on a laboratory track sprayer with spray liquors comprising the compositions according to the invention, mixtures or components used individually, as WG, WP, EC or other formulations. The application rate for the spray application was 100-600 l of water/ha. After the treatment, the plants were returned to the greenhouses and, when required, treated with fertilizer and watered. • 3. Selective pre-emergence action: seeds of various crop species (origins) were sown in a 8-13 cm diameter pot filled with natural soil of a standard field soil (loamy silt; non-sterile) and covered with a covering soil layer of about 1 cm. The pots were then cultivated in a greenhouse (12-16 h of light, temperature day 20-22° C., night 15-18° C.) until the time of application. The pots were treated at the BBCH stage 00-10 of the seeds/plants on a laboratory track sprayer with spray liquors comprising the compositions according to the invention, mixtures or components used individually, as WG, WP, EC or other formulations. The application rate for the spray application was 100-600 l of water/ha. […]"}, "[2]": {"test_system": "TRZAS = Triticum aestivum, summer wheat", "assay": "Greenhouse trial, activity with different soil types (test method 7)", "conditions": "g of AS/ha: (A) 120, (B) 1200, (A)+(B) 120 + 1200", "procedure": "as §1, §2, §3"}, "[3]": {"test_system": "ALOMY resistant (Alopecurus myosuroides)", "assay": "Greenhouse trial, PE application on resistant biotypes (test method 8)", "conditions": "resistant biotype, g of AS/ha: (A) 90, (B) 1200, (A)+(B) 90 + 1200", "procedure": "as §1, §2, §3"}, "[4]": {"test_system": "ALOMY sensitive (Alopecurus myosuroides)", "assay": "Greenhouse trial, PE application on resistant biotypes (test method 8)", "conditions": "sensitive biotype, g of AS/ha: (A) 90, (B) 1200, (A)+(B) 90 + 1200", "procedure": "as §1, §2, §3"}, "[5]": {"test_system": "MATCH resistant (Matricaria chamomilla)", "assay": "Greenhouse trial, PE application on resistant biotypes (test method 8)", "conditions": "resistant biotype, g of AS/ha: (A) 90, (B) 1200, (A)+(B) 90 + 1200, (C) 10", "procedure": "as §1, §2, §3"}, "[6]": {"test_system": "MATCH sensitive (Matricaria chamomilla)", "assay": "Greenhouse trial, PE application on resistant biotypes (test method 8)", "conditions": "sensitive biotype, g of AS/ha: (A) 90, (B) 1200, (A)+(B) 90 + 1200, (C) 10", "procedure": "as §1, §2, §3"}, "[7]": {"test_system": "HORVW = Hordeum vulgare, winter barley", "assay": "Greenhouse trial, PE application at different sowing depths (test method 9)", "conditions": "g of AS/ha: (A) 120, (B) 1200, (A)+(B) 120 + 1200", "procedure": "as §1, §2, §3"}, "LOLPE = Lolium perenne": {"test_system": "LOLPE = Lolium perenne", "assay": "Greenhouse trial, PE application at different sowing depths (test method 9)", "conditions": "g of AS/ha: (A) 120, (B) 1200, (A)+(B) 120 + 1200", "procedure": "as §1, §2, §3"}, "STEME = Stellaria media [8]": {"test_system": "STEME = Stellaria media", "assay": "Greenhouse trial, PE application at different sowing depths (test method 9)", "conditions": "g of AS/ha: (A) 120, (B) 1200, (A)+(B) 120 + 1200", "procedure": "as §1, §2, §3"}, "[9]": {"test_system": "TRZAW = Triticum aestivum, winter wheat", "assay": "Greenhouse trial, PE application at different sowing depths (test method 9)", "conditions": "g of AS/ha: (A) 120, (B) 1200, (A)+(B) 120 + 1200", "procedure": "as §1, §2, §3"}},
  "data": [
    {"smiles": "CCC(CC)Nc1c([N+](=O)[O-])cc(C)c(C)c1[N+](=O)[O-]", "note": "[(B) pendimethalin, N-(1-ethylpropyl)-3,4-dimethyl-2,6-dinitrobenzenamine]", "values": [
      {"measurement": "activity STEME IU/EC73 soil (visual assessment, scale 0-100% vs untreated)", "setting": "STEME = Stellaria media [1]; IU/EC73 soil (heavier soil, higher organic substance)", "value": 55, "unit": "%"},
      {"measurement": "Difference of the soil types Δ^D, STEME", "setting": "STEME = Stellaria media [1]; IU/EC73 soil versus IU soil", "value": "Δ^D −30%"},
      {"measurement": "activity on crop plant TRZAS IU soil (visual assessment, scale 0-100% vs untreated)", "setting": "[2]; IU soil", "value": 5, "unit": "%"},
      {"measurement": "Difference of the soil types Δ^D, TRZAS", "setting": "[2]; IU/EC73 soil versus IU soil, crop plant", "value": "Δ^D −5%"},
      {"measurement": "activity on crop plant TRZAS IU/EC73 soil (visual assessment, scale 0-100% vs untreated)", "setting": "[2]; IU/EC73 soil", "value": 0, "unit": "%"},
      {"measurement": "activity ALOMY resistant (visual assessment, scale 0-100% vs untreated)", "setting": "[3]", "value": 40, "unit": "%"},
      {"measurement": "activity ALOMY sensitive (visual assessment, scale 0-100% vs untreated)", "setting": "[4]", "value": 30, "unit": "%"},
      {"measurement": "activity MATCH resistant (visual assessment, scale 0-100% vs untreated)", "setting": "[5]", "value": 10, "unit": "%"},
      {"measurement": "activity MATCH sensitive (visual assessment, scale 0-100% vs untreated)", "setting": "[6]", "value": 10, "unit": "%"},
      {"measurement": "activity on crop plant HORVW, sowing depth 5 mm (visual assessment, scale 0-100% vs untreated)", "setting": "[7]; sowing depth 5 mm", "value": 25, "unit": "%"},
      {"measurement": "activity on crop plant HORVW, sowing depth 20 mm (visual assessment, scale 0-100% vs untreated)", "setting": "[7]; sowing depth 20 mm", "value": 0, "unit": "%"},
      {"measurement": "activity LOLPE, sowing depth 5 mm (visual assessment, scale 0-100% vs untreated)", "setting": "LOLPE = Lolium perenne; sowing depth 5 mm", "value": 30, "unit": "%"},
      {"measurement": "activity LOLPE, sowing depth 20 mm (visual assessment, scale 0-100% vs untreated)", "setting": "LOLPE = Lolium perenne; sowing depth 20 mm", "value": 10, "unit": "%"},
      {"measurement": "activity STEME, sowing depth 5 mm (visual assessment, scale 0-100% vs untreated)", "setting": "STEME = Stellaria media [8]; sowing depth 5 mm", "value": 50, "unit": "%"},
      {"measurement": "activity STEME, sowing depth 20 mm (visual assessment, scale 0-100% vs untreated)", "setting": "STEME = Stellaria media [8]; sowing depth 20 mm", "value": 70, "unit": "%"},
      {"measurement": "activity on crop plant TRZAW, sowing depth 5 mm (visual assessment, scale 0-100% vs untreated)", "setting": "[9]; sowing depth 5 mm", "value": 45, "unit": "%"},
      {"measurement": "activity on crop plant TRZAW, sowing depth 20 mm (visual assessment, scale 0-100% vs untreated)", "setting": "[9]; sowing depth 20 mm", "value": 10, "unit": "%"}
    ]}
  ]
}
